Experimental data: publication PMC9896953, “Structural basis of unisite catalysis of bacterial F0F1-ATPase” (PNAS Nexus, 2022)

Legend:
[1] = target: T1, wt-F0F1 (wild-type F0F1-ATPase / ATP synthase) (Bacillus sp. PS3, UniProt P07677+P07678+P09219); experiment: cryo-EM structure; assay type: binding
T1 construct: gene atpD; holo complex α3β3γ1ε1δ1a1b2c10 from pTR19-ASDS, expressed in E. coli DK8, DDM-solubilised, Ni-NTA purified, nucleotide-depleted; with ATP synthase gamma chain; ATP synthase epsilon chain; ATP synthase subunit delta; ATP synthase subunit a; ATP synthase subunit b; ATP synthase subunit c

[2] = target: T2, ΔεCT-F0F1 (F0F1 with C-terminal-truncated ε subunit) (Bacillus sp. PS3, UniProt P07677+P09219); experiment: cryo-EM structure; assay type: binding; conditions: unisite conditions (substoichiometric ATP with PEP / pyruvate kinase), 25 °C, pH 8.0; catalytic site of closed βTP
T2 construct: gene atpD; holo complex, ε lacks residues 83-133; derived from pTR19-ASDS, expressed in E. coli, DDM-solubilised, Ni-NTA purified, nucleotide-depleted; PS3 origin is judgement; with ATP synthase gamma chain; ATP synthase epsilon chain; ATP synthase subunit delta; ATP synthase subunit a; ATP synthase subunit b; ATP synthase subunit c

Structure (SMILES)	cryo-EM structure ([1]; sample exposed to 4 mM ATPγS, catalytic βDP (ε down), βTP and βDP (ε up))	cryo-EM structure [2]	cryo-EM structure ([1]; 4 mM ATPγS, ε-down form: catalytic βE and βTP and noncatalytic α sites, also bound in the retracted ε subunit (second site), ε-up form: βE)
Nc1ncnc2c1ncn2[C@@H]1O[C@H](COP(=O)(O)OP(=O)(O)O)[C@@H](O)[C@H]1O [ADP]	“closed in βTP with ADP,” and “open in βDP with ADP”	revealed a nucleotide density due to ADP at the catalytic site in βTP	
Nc1ncnc2c1ncn2[C@@H]1O[C@H](COP(=O)(O)OP(=O)(O)OP(O)(O)=S)[C@@H](O)[C@H]1O [ATPγS]			“open in βE with ATPγS,” “closed in βTP with ATPγS,” and “closed in βDP with ADP
